Experimental data: US3989837A, “Pharmaceutical compositions” (Chinoin Gyogyszer-es Vegyeszeti Termekek Gyara RT, priority 1972, dated 1976)
Values joined by “and” are separate entries in the source; they are usually repeats but may differ in a detail not shown here. Equal entries are not always repeated.

Columns and labels:
mice = assay: Toxicity on mice after oral administration, single dosage (Table 1'); format: in vivo; conditions: male mice
Experimental: (§1) The tests were carried out on male mice weighing 25 to 30 g., not starved previously. The compounds were administered in a dosage of 0.2 ml. of suspension per 10 g. body weight. The individual dosages indicated in Table 1' were administered to 10 mice each. The given amount of active agent was added in a single dosage, and the animals were dept under observation for 7 days (= 168 hours). The number of deceased animals was recorded daily.
(§2) The LD50 values were calculated according to the Litchfied-Wilcoxon method, by also taking into account the number of animals perished within 168 hours from the administration.

[1] = as above; format: in vivo; conditions: mouse, in vivo, po; male mice, p.o., 168 hours; read-out: LD50
Experimental: as §1, §2

cotton granuloma = assay: Cotton granuloma, comparison with Indomethacine (Table 6); format: in vivo, rat; conditions: male rats, oral daily 4 mg./kg., 7 days, p 0.001
Experimental: Two cotton beads, each weighing 23 to 27 mg., were implanted under the dorsal skin of the animals in aether narcosis, under semisterile conditions, along both sides of the vertebral column. The compound under examination was administered twice a day for 7 days in oral dosages of 0.2 ml./100 g. body weight, in a suspension formed with 1% methyl cellulose. On the 8th day the animals were killed by etheral overnarcosis, the granulomes were removed, dried at 50° C for 5 hours, and then weighed. The animals belonging to the control group were treated similarly, but they received suspending agent only. The percentage efficiacy was calculated from the weight differences of the granuloma tissues observed for the treated and control groups. The significance was examined by the t test.

carrageenine oedema = assay: Rat paw oedema, carrageenine (Table 5'); format: in vivo; conditions: female rats, p.o. 10 mg./kg.; for Effect % (average), inhibition of carrageenine oedema: average of repeated tests
Experimental: (§3) Inflammatory plantar oedema was provided by the subplantar injection of 0.1 ml. of 5% kaoline or 0.5% carrageenine on female rats each weighing 110 to 130 g., starved for 24 hours. The dorsoplantar diameter of the test animals was measured with a double-armed instrument prior to the administration of the phlogistic (basic value) and at regular intervals (at 2, 3.5 and 5 hours for kaoline and at 1.5, 3 and 4.5 hours for carrageenine) after the administration of the phlogistic. […] The treatment was always carried out 1 hour before the administration of the phlogistic. The animals belonging to the control group received suspending agent only. In order to ensure a uniform hydration grade, 1 ml. of tap water was administered through a stomach tube to the animals simultaneously with the administration of the active agent. During the test period the animals were allowed to consume water ad libitum.
(§4) The effect was calculated from the difference of the increase in paw diameter observed in the treated and control groups. The daga are given as percentage efficiacy.
(§5) The significance level was examined by Student's t test. The significance levels are marked by asterisks; the values of the repeated tests are given separately.

kaoline oedema = assay: Rat paw oedema, kaoline (Table 4'); format: in vivo; conditions: female rats; for Effect % (average), inhibition of kaoline oedema: average of repeated tests
Experimental: as §3, §4, §5

writhing syndrome = assay: Writhing syndrome, comparison with Indomethacine (Table 7); format: in vivo, mouse; conditions: male mice
Experimental: The tests were carried out on male mice each weighing 15 to 18 g., starved for 16 hours prior to treatment. 0.1 ml./10 g. body weight of 1% acetic acid solution was injected intraperitoneally to the animals. The sterile inflammation occurred on the action of acetic acid provoked a characteristic syndrome (writhing). The number of writhings was counted during an observation period of 20 minutes, starting 15 minutes after the administration of acetic acid. The substance to be tested was administered orally as a suspension, in a dosage of 0.1 ml./10 g. body weight 2 to 4 hours before the acetic acid injection. The average number of writhings observed for the treated animals was compared to that observed in the control group, and the percentage inhibition was calculated from the difference.

rats = assay: Ulcerogeneous action on rats, comparison with Indomethacine (Table 3'); conditions: male rats, 5 days

## COc1ccc2c(c1)c(CC(=O)O)c(C)n2C(=O)c1ccc(Cl)cc1 [Indomethacine, reference compound]
mice; oral 50 mg./kg., 24 h
  Perished animals/treated animals: 0/10
mice; oral 50 mg./kg., 48 h
  Perished animals/treated animals: 0/10
mice; oral 50 mg./kg., 72 h
  Perished animals/treated animals: 0/10
mice; oral 50 mg./kg., 96 h
  Perished animals/treated animals: 0/10
mice; oral 50 mg./kg., 120 h
  Perished animals/treated animals: 0/10
mice; oral 50 mg./kg., 144 h
  Perished animals/treated animals: 0/10
mice; oral 50 mg./kg., 168 h
  Perished animals/treated animals: 0/10
mice; oral 150 mg./kg., 24 h
  Perished animals/treated animals: 0/10
mice; oral 150 mg./kg., 48 h
  Perished animals/treated animals: 0/10
mice; oral 150 mg./kg., 72 h
  Perished animals/treated animals: 0/10
mice; oral 150 mg./kg., 96 h
  Perished animals/treated animals: 2/10
mice; oral 150 mg./kg., 120 h
  Perished animals/treated animals: 4/10
mice; oral 150 mg./kg., 144 h
  Perished animals/treated animals: 6/10
mice; oral 150 mg./kg., 168 h
  Perished animals/treated animals: 6/10
mice; oral 300 mg./kg., 24 h
  Perished animals/treated animals: 0/10
mice; oral 300 mg./kg., 48 h
  Perished animals/treated animals: 0/10
mice; oral 300 mg./kg., 72 h
  Perished animals/treated animals: 4/10
mice; oral 300 mg./kg., 96 h
  Perished animals/treated animals: 6/10
mice; oral 300 mg./kg., 120 h
  Perished animals/treated animals: 8/10
mice; oral 300 mg./kg., 144 h
  Perished animals/treated animals: 10/10
mice; oral 300 mg./kg., 168 h
  Perished animals/treated animals: 10/10
mice; oral 500 mg./kg., 24 h
  Perished animals/treated animals: 0/10
mice; oral 500 mg./kg., 48 h
  Perished animals/treated animals: 2/10
mice; oral 500 mg./kg., 72 h
  Perished animals/treated animals: 4/10
mice; oral 500 mg./kg., 96 h
  Perished animals/treated animals: 7/10
mice; oral 500 mg./kg., 120 h
  Perished animals/treated animals: 9/10
mice; oral 500 mg./kg., 144 h
  Perished animals/treated animals: 10/10
mice; oral 500 mg./kg., 168 h
  Perished animals/treated animals: 10/10
mice; oral 700 mg./kg., 24 h
  Perished animals/treated animals: 1/10
mice; oral 700 mg./kg., 48 h
  Perished animals/treated animals: 5/10
mice; oral 700 mg./kg., 72 h
  Perished animals/treated animals: 5/10
mice; oral 700 mg./kg., 96 h
  Perished animals/treated animals: 7/10
mice; oral 700 mg./kg., 120 h
  Perished animals/treated animals: 9/10
mice; oral 700 mg./kg., 144 h
  Perished animals/treated animals: 9/10
mice; oral 700 mg./kg., 168 h
  Perished animals/treated animals: 10/10
mice; oral 900 mg./kg., 24 h
  Perished animals/treated animals: 1/10
mice; oral 900 mg./kg., 48 h
  Perished animals/treated animals: 4/10
mice; oral 900 mg./kg., 72 h
  Perished animals/treated animals: 6/10
mice; oral 900 mg./kg., 96 h
  Perished animals/treated animals: 8/10
mice; oral 900 mg./kg., 120 h
  Perished animals/treated animals: 10/10
mice; oral 900 mg./kg., 144 h
  Perished animals/treated animals: 10/10
mice; oral 900 mg./kg., 168 h
  Perished animals/treated animals: 10/10
[1]
  LD50 at 168 h: 140 mg/kg
Cotton granuloma
  Effect %, cotton granuloma: 36.0%
Carrageenine oedema; 1.5 hours
  Effect %, inhibition of carrageenine oedema: 24.1% and 20.6%
  Effect % (average), inhibition of carrageenine oedema: 22.3%
Carrageenine oedema; 3 hours
  Effect %, inhibition of carrageenine oedema: 32.9% and 28.8%
  Effect % (average), inhibition of carrageenine oedema: 30.8%
Carrageenine oedema; 4.5 hours
  Effect %, inhibition of carrageenine oedema: 19.8% and 20.9%
  Effect % (average), inhibition of carrageenine oedema: 20.3%
Kaoline oedema; p.o. 10 mg./kg., 2 hours
  Effect %, inhibition of kaoline oedema: 14.7% and 19.7%
  Effect % (average), inhibition of kaoline oedema: 17.2%
Kaoline oedema; p.o. 10 mg./kg., 3.5 hours
  Effect %, inhibition of kaoline oedema: 19.5% and 27.6%
  Effect % (average), inhibition of kaoline oedema: 23.5%
Kaoline oedema; p.o. 10 mg./kg., 5 hours
  Effect %, inhibition of kaoline oedema: 21.2% and 27.2%
  Effect % (average), inhibition of kaoline oedema: 24.2%
Kaoline oedema; p.o. 25 mg./kg., 2 hours
  Effect %, inhibition of kaoline oedema: 33.7% and 32.7%
  Effect % (average), inhibition of kaoline oedema: 33.2%
Kaoline oedema; p.o. 25 mg./kg., 3.5 hours
  Effect %, inhibition of kaoline oedema: 35.1% and 37.1%
  Effect % (average), inhibition of kaoline oedema: 36.1%
Kaoline oedema; p.o. 25 mg./kg., 5 hours
  Effect %, inhibition of kaoline oedema: 32.1% and 44.4%
  Effect % (average), inhibition of kaoline oedema: 38.2%
Writhing syndrome; p.o. 5 mg./kg., 2 hours
  Effect %, writhing: 58.2% and 61.1%
  Effect % average, writhing: 59.6%
Writhing syndrome; p.o. 5 mg./kg., 4 hours
  Effect %, writhing: 65.7% and 43.7%
  Effect % average, writhing: 54.7%
Writhing syndrome; p.o. 12.5 mg./kg., 2 hours
  Effect %, writhing: 73.6% and 67.2%
  Effect % average, writhing: 70.4%
Writhing syndrome; p.o. 12.5 mg./kg., 4 hours
  Effect %, writhing: 85.8% and 70.0%
  Effect % average, writhing: 77.9%
rats; oral 4 mg./kg.
  Animals having lesions on the intestines: 5%
  Perishment: 0/20
  Survivals: 20
  Ulcer index: 0.45
  Ulcer number: 0.1
rats; oral 8 mg./kg.
  Animals having lesions on the intestines: 40%
  Perishment: 10/20
  Survivals: 10
  Ulcer index: 0.3
  Ulcer number: 0
